These molecules were tested against T1, DCAF1 (1058-1396) (Homo sapiens, UniProt Q9Y4B6) (assay: Surface plasmon resonance (SPR) binding assay, compound binding to DCAF1). Details: immobilized DCAF1 (1058-1396), steady state affinity model, 25° C.
T1 construct: a fragment of a DCAF1 protein that includes amino acid residues A1058 to E1396; His6 (N, cleaved yes); made in house; host or cells: Sf9 insect cells (Bac-to-Bac baculovirus, pFastBacHT vector)
Experimental: Binding affinities of specific exemplary compounds to DCAF1 (1058-1396), which is a fragment of a DCAF1 protein that includes amino acid residues A1058 to E1396 were determined by a surface plasmon resonance (SPR) assay. Briefly, purified DCAF1 (1058-1396) proteins were immobilized at a density of 9,000-11,000 resonance units (RUs) on a CMS sensor chip. Sensorgrams were recorded at different concentrations of compounds in multi-cycle kinetic format. Data were analyzed using a steady state affinity model through Biacore Evaluation Software to provide equivalent dissociation constants (Kd).
Binding affinities of compounds to DCAF1 were determined by a surface plasmon resonance (SPR) assay. Purified DCAF1 (1058-1396) proteins were immobilized on a CMS sensor chip, and a dose range of compound solutions were injected in multi-cycle kinetic format. Data were analyzed using a steady state model to provide equivalent dissociation constants (Kd).
Protein Expression and Purification: Human DCAF1 (1058-1396) (UniPro: Q9Y4B6) coding sequences were cloned into pFastBacHT vector and were expressed in Sf9 cells using Bac-to-Bac baculovirus expression system (Thermo Fisher Scientific). The expression construct for DCAF1 (1058-1396) included a N-terminal His6-tag to facilitate the purification. DCAF1 (1058-1396) proteins were obtained from supernatants of cell lysates and purified through sequential application of Ni affinity chromatography (Ni-NTA column, Bio-Rad), Tag removal using TEV protease, and size-exclusion chromatography (Superdex 200 column, GE Healthcare).
Surface plasmon resonance (SPR) binding assays: SPR studies were performed on a Biacore X100 plus or T200 instrument (GE Healthcare). Immobilization of purified DCAF1 (1058-1396) was carried out at 25° C. using a CMS sensor chip. The surface was pre-equilibrated in HBS-EP running buffer (10 mM HEPES, pH 7.4, 150 mM NaCl, 3 mM EDTA, 0.05% P20), before being activated with EDC/NHS. DCAF1 (1058-1396) was immobilized through amino groups to a density of 9,000-12,000 resonance units (RUs) on flow cell channel 2 (FC2), whereas flow cell channel 1 (FC1) was used as reference. Both DCAF1 immobilized and reference surfaces were deactivated with 1 M ethanolamine.
Interaction experiments were performed at 25° C. The compounds were prepared and serially diluted in HBS-EP running buffer containing final 2% DMSO (6-point two-fold serial dilution, 100 μM -3.125 μM final concentration of compounds). Compound Solutions were injected individually in multi-cycle kinetic format without regeneration (flow rate 30 μL/min, association time 60 s, dissociation time 60 s). Sensorgrams from reference surfaces and blank injections were subtracted from the raw data (double-referenced) and the data was solvent-corrected prior to analysis. Data were analyzed using a steady state affinity model through Biacore Evaluation Software to provide equivalent dissociation constants (Kd).

T1 sequence (Q9Y4B6 1058-1396): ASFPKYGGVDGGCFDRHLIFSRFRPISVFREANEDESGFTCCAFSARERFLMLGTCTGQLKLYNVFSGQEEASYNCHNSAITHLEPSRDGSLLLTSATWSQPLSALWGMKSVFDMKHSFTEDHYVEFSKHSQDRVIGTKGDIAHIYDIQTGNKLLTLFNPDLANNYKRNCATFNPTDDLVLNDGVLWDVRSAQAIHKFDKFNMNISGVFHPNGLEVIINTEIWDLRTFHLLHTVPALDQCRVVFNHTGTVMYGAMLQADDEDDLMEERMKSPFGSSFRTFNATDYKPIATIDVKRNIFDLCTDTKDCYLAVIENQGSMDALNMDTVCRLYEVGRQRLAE

`CC(C)c1ccc2[nH]c3c(c2c1)CN(CCc1cnn[nH]1)CC3` [CPD-009, 2-(2-(1H-1,2,3-triazol-5-yl)ethyl)-8-isopropyl-2,3,4,5-tetrahydro-1H-pyrido[4,3-b]indole] and `Fc1ccc2[nH]c3c(c2c1)CN(CCc1cnn[nH]1)CC3` [CPD-012, 2-(2-(1H-1,2,3-triazol-5-yl)ethyl)-8-fluoro-2,3,4,5-tetrahydro-1H-pyrido[4,3-b]indole] cannot be ordered by Kd: 40 to 70 µM for the first, ≤ 40 µM for the second.

`CN1Cc2ccccc2CC1CNC(=O)c1nc(=N)[nH]c2c1CCCC2` (stereo not shown) [CPD-092, 2-imino-N-((2-methyl-1,2,3,4-tetrahydroisoquinolin-3-yl)methyl)-1,2,5,6,7,8-hexahydroquinazoline-4-carboxamide] and `Cc1nc(N)nc(C)c1CC(=O)NCC1Cc2ccccc2CN1C` (stereo not shown) [CPD-094, 2-(2-amino-4,6-dimethylpyrimidin-5-yl)-N-((2-methyl-1,2,3,4-tetrahydroisoquinolin-3-yl)methyl)acetamide] fall in the same range of Kd: 40 to 70 µM for the first, 40 to 70 µM for the second.

Compared with `O=C(CN1CCc2[nH]c3ccc(Cl)cc3c2C1)N1CCOCC1` [CPD-044, 2-(8-chloro-1,3,4,5-tetrahydro-2H-pyrido[4,3-b]indol-2-yl)-1-morpholinoethan-1-one], `CNC(=O)NC(=O)CCN1CCc2[nH]c3ccc(Cl)cc3c2C1` [CPD-050, 3-(8-chloro-1,3,4,5-tetrahydro-2H-pyrido[4,3-b]indol-2-yl)-N-(methylcarbamoyl)propanamide] is higher in Kd: 40 to 70 µM for the first, 70 to 100 µM for the second. The first binds more tightly here.

`OCCOc1ccc(CNCc2cnc[nH]2)cc1` [CPD-031, 2-(4-((((1H-imidazol-5-yl)methyl)amino)methyl)phenoxy)ethan-1-ol] and `COc1cncc(CNCc2cnc[nH]2)c1` [CPD-027, N-((1H-imidazol-5-yl)methyl)-1-(5-methoxypyridin-3-yl) methanamine] cannot be ordered by Kd: > 100 µM for the first, > 100 µM for the second.

Compared with `CN(C)C(=O)c1ccc(NCC2Cc3ccccc3CN2C)nc1` (stereo not shown) [CPD-089, N,N-dimethyl-6-(((2-methyl-1,2,3,4-tetrahydroisoquinolin-3-yl)methyl)amino)nicotinamide], `Cc1cc(N)n(CC(=O)N(C)CC2Cc3ccccc3CN2C)n1` (stereo not shown) [CPD-093, 2-(5-amino-3-methyl-1H-pyrazol-1-yl)-N-methyl-N-((2-methyl-1,2,3,4-tetrahydroisoquinolin-3-yl)methyl)acetamide] is lower in Kd: 70 to 100 µM for the first, 40 to 70 µM for the second.

`Cc1ccc2c(c1)c1c(n2C)CCN(C)C1` [CPD-022, 2,5,8-trimethyl-2,3,4,5-tetrahydro-1H-pyrido[4,3-b]indole] and `CN1CCc2c(c3ccccc3n2-c2ccccc2)C1` [CPD-057, 2-methyl-5-phenyl-2,3,4,5-tetrahydro-1H-pyrido[4,3-b]indole] cannot be ordered by Kd: > 100 µM for the first, > 100 µM for the second.

First: Cc1ccc2c(c1)C1CN(C)CCC1N2S(=O)(=O)c1ccc(C(=O)C(C)C)cc1 (stereo not shown) [CPD-077, 1-(4-((2,8-dimethyl-1,2,3,4,4a,9b-hexahydro-5H-pyrido[4,3-b]indol-5-yl)sulfonyl)phenyl)-2-methylpropan-1-one]
Second: COC(=O)c1scc(C)c1S(=O)(=O)N1c2ccc(C)cc2C2CN(C)CCC21 (stereo not shown) [CPD-076, methyl 3-((2,8-dimethyl-1,2,3,4,4a,9b-hexahydro-5H-pyrido[4,3-b]indol-5-yl)sulfonyl)-4-methylthiophene-2-carboxylate]
The Kd of the first is higher: > 100 µM for the first, 40 to 70 µM for the second. The second binds more tightly here.

First: CC(C)(C)c1ccc2[nH]c3c(c2c1)CN(CCc1cnn[nH]1)CC3 [CPD-011, 2-(2-(1H-1,2,3-triazol-5-yl)ethyl)-8-(tert-butyl)-2,3,4,5-tetrahydro-1H-pyrido[4,3-b]indole]
Second: O=C(O)CCN1CCc2[nH]c3ccc(Br)cc3c2C1 [CPD-054, 3-(8-bromo-1,3,4,5-tetrahydro-2H-pyrido[4,3-b]indol-2-yl)propanoic acid]
The Kd of the first is lower: 40 to 70 µM for the first, > 100 µM for the second. The first binds more tightly here.

Compared with `COc1ccc(/C=C/C(=O)N2c3ccc(C)cc3C3CN(C)CCC32)cc1` (stereo not shown) [CPD-085, (E)-1-(2,8-dimethyl-1,2,3,4,4a,9b-hexahydro-5H-pyrido [4,3-b]indol-5-yl)-3-(4-methoxyphenyl)prop-2-en-1-one], `Cc1ccc2c(c1)C1CN(C)CCC1N2C(=O)/C=C/c1ccc(S(=O)(=O)N2CCOCC2)cc1` (stereo not shown) [CPD-087, (E)-1-(2,8-dimethyl-1,2,3,4,4a,9b-hexahydro-5H-pyrido [4,3-b]indol-5-yl)-3-(4-(morpholinosulfonyl)phenyl)prop-2-en-1-one] is lower in Kd: > 100 µM for the first, 40 to 70 µM for the second. The second binds more tightly here.

`Oc1ccc(F)c(CNCc2cnc[nH]2)c1` [CPD-102, 3-((((1H-imidazol-5-yl)methyl)amino)methyl)-4-fluorophenol] and `Cn1cccc1CNCc1cccnc1` [CPD-002, 1-(1-methyl-1H-pyrrol-2-yl)-N-(pyridin-3-ylmethyl)methanamine] cannot be ordered by Kd: > 100 µM for the first, > 100 µM for the second.

First: NCCOCCOCCOCCn1cccc1CNCc1ccncc1 [CPD-006, 2-(2-(2-(2-(2-(((pyridin-4-ylmethyl)amino)methyl)-1H-pyrrol-1-yl)ethoxy)ethoxy)ethoxy)ethan-1-amine]
Second: CCn1ccnc1CN(C)CC1Cc2ccccc2CN1C (stereo not shown) [CPD-091, 1-(1-ethyl-1H-imidazol-2-yl)-N-methyl-N-((2-methyl-1,2,3,4-tetrahydroisoquinolin-3-yl)methyl)methanamine]
The Kd of the first is lower: 40 to 70 µM for the first, 70 to 100 µM for the second.

`Cc1ccc2c(c1)C1CN(C)CCC1N2C(=O)CCc1cccs1` (stereo not shown) [CPD-082, 1-(2,8-dimethyl-1,2,3,4,4a,9b-hexahydro-5H-pyrido[4,3-b]indol-5-yl)-3-(thiophen-2-yl)propan-1-one] and `Cc1ccc2c(c1)[C@H]1CN(C)CC[C@H]1N2C(=O)/C=C/c1nccs1` (racemic) [CPD-037, (E)-1-(cis-2,8-dimethyl-1,2,3,4,4a,9b-hexahydro-5H-pyrido [4,3-b]indol-5-yl)-3-(thiazol-2-yl)prop-2-en-1-one] cannot be ordered by Kd: > 100 µM for the first, > 100 µM for the second.

`Cc1cccc2c1[C@H]1CN(C)CC[C@H]1N2` (racemic) [CPD-041, cis-2,9-dimethyl-2,3,4,4a,5,9b-hexahydro-1H-pyrido[4,3-b]indole] and `CCn1nc(C2CC2)cc1C(=O)N1c2ccc(C)cc2C2CN(C)CCC21` (stereo not shown) [CPD-071, (3-cyclopropyl-1-ethyl-1H-pyrazol-5-yl)(2,8-dimethyl-1,2,3,4,4a,9b-hexahydro-5H-pyrido[4,3-b]indol-5-yl)methanone] cannot be ordered by Kd: > 100 µM for the first, > 100 µM for the second.

`C#CCNC(=O)CCN1CCc2[nH]c3ccc(F)cc3c2C1` [CPD-052, 3-(8-fluoro-1,3,4,5-tetrahydro-2H-pyrido[4,3-b]indol-2-yl)-N-(prop-2-yn-1-yl)propanamide] and `Cc1ccc2[nH]c3c(c2c1)CN(CC(O)COc1ccc(C(=O)O)cc1)CC3` (stereo not shown) [CPD-056, 4-(2-hydroxy-3-(8-methyl-1,3,4,5-tetrahydro-2H-pyrido[4,3-b]indol-2-yl)propoxy)benzoic acid] cannot be ordered by Kd: 40 to 70 µM for the first, ≤ 40 µM for the second.

`COc1nn(C)cc1C(=O)N1c2ccc(C)cc2C2CN(C)CCC21` (stereo not shown) [CPD-070, (2,8-dimethyl-1,2,3,4,4a,9b-hexahydro-5H-pyrido[4,3-b]indol-5-yl)(3-methoxy-1-methyl-1H-pyrazol-4-yl)methanone] and `COc1cc(C)ccc1C(=O)N1c2ccc(C)cc2C2CN(C)CCC21` (stereo not shown) [CPD-067, (2,8-dimethyl-1,2,3,4,4a,9b-hexahydro-5H-pyrido[4,3-b]indol-5-yl)(2-methoxy-4-methylphenyl)methanone] cannot be ordered by Kd: > 100 µM for the first, > 100 µM for the second.

`COc1cc(C(=O)N2c3ccc(C)cc3C3CN(C)CCC32)ncn1` (stereo not shown) [CPD-064, (2,8-dimethyl-1,2,3,4,4a,9b-hexahydro-5H-pyrido [4,3-b]indol-5-yl)(6-methoxypyrimidin-4-yl)methanone] and `Cc1ccc2c(c1)C1CN(C)CCC1N2C(=O)c1cc(-n2cccc2)ccn1` (stereo not shown) [CPD-068, (4-(1H-pyrrol-1-yl)pyridin-2-yl)(2,8-dimethyl-1,2,3,4,4a,9b-hexahydro-5H-pyrido[4,3-b]indol-5-yl)methanone] cannot be ordered by Kd: > 100 µM for the first, > 100 µM for the second.

Compared with `Cc1ccc(Br)c2[nH]c3c(c12)CN(C)CC3` [CPD-038, 6-bromo-2,9-dimethyl-2,3,4,5-tetrahydro-1H-pyrido[4,3-b]indole], `Cc1ccc2c(c1)C1CN(C)CCC1N2C(=O)c1cc(F)ccc1Br` (stereo not shown) [CPD-065, (2-bromo-5-fluorophenyl) (2,8-dimethyl-1,2,3,4,4a,9b-hexahydro-5H-pyrido[4,3-b]indol-5-yl)methanone] is lower in Kd: > 100 µM for the first, ≤ 40 µM for the second.
